Experimental data: patent publication US11413267B2, “Methods and compositions for inhibition of ATR and FANCD2 activation” (priority 2012, dated 2022)

Legend:
[1] = test system: GFP expressing adenovirus (Ad-GFP); experiment: Ad-GFP infection of HEK293A cells; type: cell-based; details: for Ad-GFP infection: 0.2-2 μM
Excerpt: To test the effects of anti-virus infection of benzopyran-4-one derivative compounds, a green fluorescent protein (GFP) expressing adenovirus to visualize adenovirus infection was used. To obtain the reporter virus, the GFP cDNA is amplified from pEGFP-N1 (Clontech, Accession: U55762.1) through a polymerase chain reaction with primers 5′-CACCATGGTGAGCAAGGGC-3′ [SEQ ID NO: 5] and 5′-[…]-3′ [SEQ ID NO: 6], and then cloned into pENTR™/D-TOP vector (Invitrogen). The GFP cDNA was transferred to adenovirus vector pAd/CMV/V5-DEST™ through an in vitro recombination method using LR Clonase® II after the sequence was confirmed. We selected the ampicillin- and […] clones to obtain the pAd-GFP. The pAd-GFP plasmid is then transfected into E1a and E1b expressing HEK293A cells to produce a crude GFP expression adenoviral stock (Ad-GFP). The adenovirus was amplified by infecting HEK293A cells. The adenoviral stock was titered and later used to infect the cells for the analysis.
To observe the anti-virus effect of the benzopyran-4-one derivative compounds, Ad-GFP and Lenti-GFP at a low MOI of 0.5 were then applied to infect the HEK293A cells and HEK293T cells, respectively. In the prevention group, cells were treated by compounds of Compound I-1 at 0.2, 1, and 2 μM or Compound II-1 at 0.1, 0.5, 1 μM for 30 minutes before Ad-GFP and Lenti-GFP infection. In the treatment group, cells were treated by compounds of Compound I-1 at 0.2, 1, and 2 μM or Compound II-1 at 0.1, 0.5, and 1 μM for 2 hours after Ad-GFP and Lenti-GFP infection. After a total of 6 hours of compounds and virus treatments, cells were washed with Hank's buffered salt solution and a flash culture media was replaced.
24 hours after virus infection, the effect of the benzopyran-4-one derivative compounds on the antivirus infection was recorded by observing the GFP positive cells under an inverted fluorescence microscope. The mean fluorescence intensity by flow cytometry in each plate of cells was analyzed for quantification.

cancer cells = experiment: MTT cytotoxicity assay on cancer cells, 48 h; type: cell-based, human; details: FIG. 4
FANCD2 = experiment: Immunoblot of FANCD2 monoubiquitination; type: cell-based, human; details: cisplatin-treated cells, same doses as Protoapigenone (I-1)
Excerpt: Understanding the mechanism by which the benzopyran-4-one derivatives compounds cause chromosomal breakages (FIG. 1) and other abnormalities might aid in identifying their targets. We hypothesized that genes with functions associated with DNA damage checkpoints and/or DNA repair might be targeted by benzopyran-4-one derivatives. To test this hypothesis, we assessed the effects of benzopyran-4-one derivatives on DDR induced by H2O2. […] In response to DNA double-strand breaks (DSBs), FANCD2 is known to be monoubiquitinated on K561 (FANCD2-Ub) in an ATR-dependent manner to stimulate repair (Andreassen P R, et al. Genes Dev 2004). […] Collectively, these findings indicate that benzopyran-4-one derivatives can modify ATR signaling after various types of DNA damage.
Inhibition of the checkpoint and repair mechanisms leads to chemosensitization in cancers. […] We further treated individual cells with cisplatin in combination with several varying doses of benzopyran-4-one derivatives, and counted survival colonies to determine their ability to survive after cisplatin-induced damage. […]
Cell lysate preparations, gel electrophoresis, and immunoblotting were performed as previously described (23). The binding of primary antibodies were detected by horseradish peroxidase-coupled secondary antibodies (Jackson ImmunoResearch) followed by enhanced chemiluminescence (ECL) (Millipore). […]

host cell = experiment: MTT assay of host cell toxicity; type: cell-based; details: 1 μM, 6 hours treatment plus 18 hours fresh medium
Description: To understand whether or not inhibition of the virus infection is followed by the host cell toxicity caused by the compound treatments, we performed an MTT [3-(4,5-cimethylthiazol-2-yl)-2,5-diphenyl tetrazolium bromide] assay in cells untreated or treated with indicated compounds for 6 hours. After that, the compound is washed out and the MTT assay was tested after an additional 18 hours of fresh culture medium incubation, in a way similar to the protocol shown in FIG. 26. 0.5 mg/mL of MTT contained media was added to cells at the end of the experiment and incubated for 3 hours. Then, the supernatant was removed and the formazone crystals solubilized using 100 μl of DMSO and the absorbance at 570 nm was read using a microplate reader. […] However, the virus inhibition effect of 50-99% is also shown at this dose of Compound II-1.

MDA-MB-231 cells = experiment: In vitro chemosensitization assay (clonogenic survival); type: cell-based, human
Excerpt: Inhibition of the checkpoint and repair mechanisms leads to chemosensitization in cancers. […] We further treated individual cells with cisplatin in combination with several varying doses of benzopyran-4-one derivatives, and counted survival colonies to determine their ability to survive after cisplatin-induced damage. […] To investigate the chemosensitization effect of low-dose benzopyran-4-one derivatives in vivo, we established a tumor xenograft in nude mice using human MDA-MB-231 tumor cells, which are considered to be more resistant to cisplatin and are also sensitive to treatment with benzopyran-4-one derivatives, at least as compared to A549 cells (FIGS. 4, 17(a) and 17(b)). […] The pharmacokinetic data of Protoapigenone (I-1) and compound II-1 needs to be compared in future studies to determine the differences in the chemical effects of these 2 compounds in vitro and in vivo.
Please refer to FIGS. 31(a)-31(e), which are the surviving fractions of MDA-MB-231 cells which were co-administered compound II-1 with the DNA damaging agent, i.e. (a) doxorubicin, (b) etoposide, (c) mytomycin C, (d) camptothecin, or (e) taxol. […] Accordingly, a low dose of benzopyran-4-one derivatives can enhance the chemosensitivity of the chemotherapeutic drug.
To evaluate in vitro chemosensitization, cells were seeded in 6-well plates 1 d before the experiment at a density of 100-400 cells/well. The drugs were incubated with the cells for 6 h, after which the medium was replaced with fresh drug-free FBS-containing medium. The colonies became visible and were counted 7-10 d later using 0.1% crystal violet staining following image capture by a CCD camera (LAS-4000 mini; Fujifilm).

[2] = post-treatment 2 hours after infection, 0.1-1 μM
[3] = pre-treatment 30 minutes before infection, 0.1-1 μM, MOI 0.5, 24 hours

Row | SMILES | Ad-GFP infection ([1]; post-treatment) | Ad-GFP infection ([1]; pre-treatment) | Cytotoxicity, comparison (cancer cells) | FANCD2 monoubiquitination and protein stability (FANCD2) | Decrease of surviving cells (host cell) | MFI of GFP protein [1, 2] | Number of GFP cells [1, 2] | Mean fluorescence intensity (MFI) of GFP protein [1, 3] | Number of GFP cells [1, 3] | inhibition at 1 µM ([1]; unidentified adenovirus, HEK293-A, read-out: Virus inhibition effect) [%] | Survival of MDA-MB-231 cells (MDA-MB-231 cells; 2.5 nM to 20.0 nM co-administered with camptothecin) | Survival of MDA-MB-231 cells (MDA-MB-231 cells; 2.5 nM to 20.0 nM co-administered with doxorubicin) | Survival of MDA-MB-231 cells (MDA-MB-231 cells; 2.5 nM to 20.0 nM co-administered with etoposide) | Survival of MDA-MB-231 cells (MDA-MB-231 cells; 2.5 nM to 20.0 nM co-administered with mytomycin C) | Survival of MDA-MB-231 cells (MDA-MB-231 cells; 2.5 nM to 20.0 nM co-administered with taxol)
1 | O=C1C=CC(O)(c2cc(=O)c3c(O)cc(O)cc3o2)C=C1 [Compound I-1, Protoapigenone] | did not inhibit the Ad-GFP infection | did not prevent the Ad-GFP infection |  |  |  |  |  |  |  |  |  |  |  |  | 
2 | O=C1C=CC(O)(c2cc(=O)c3c(ccc4ccccc43)o2)C=C1 [Compound II-1, 3-(1-hydroxy-4-oxo-cyclohexa-2,5-dienyl)-1H-benzo[f]chromen-1-one] |  |  | more potent than Protoapigenone (I-1) | not only inhibits monoubiquitination of FANCD2 but also affects FANCD2 protein stability | 5-10% | decreased | decreased | decreased | decreased | 50 to 99 | not significantly decreased | significantly decreased | significantly decreased | significantly decreased | not significantly decreased
